Data as given in patent US5843908A, “Pradimicins l and fl, and derivatives thereof” (Bristol-Myers Squibb Company, priority 1990, dated 1998).
≈ marks a conversion by molar mass, not a printed value.

Tests used:
[1] = test system: Candida tropicalis 85-8 (Kitasato); test: In vitro antifungal activity, serial agar dilution, yeast morphology agar (Tables 4b, 4c); format: cell-based; conditions: 60 h, 1/15 M phosphate buffer, 10^6 cells/ml, 40 hours at 28° C.
Description: (§1) Representative compounds of the present invention were tested in vitro against various fungi by serial agar dilution method in either Sabouraud dextrose agar or yeast morphology agar containing 1/15 M phosphate buffer. Thus, approximately 0.003 ml of fungal suspension containing 10^6 -10^7 cells/ml was applied to the surface of agar plates containing the test antibiotic. The minimum inhibitory concentration (MIC) values for the test compounds were recorded after the cultures had been incubated for 40-60 hours at 28° C.
(§2) ^1. Determined after incubation for 40 hours at 28° C.
(§3) (Trichophyton mentagrophytes: 60 hours, 28° C.).
(§4) ^2. Inoculum size 10^6 cells/ml (Trichophyton mentagrophytes:
(§5) 10^7 cells/ml) in yeast morphology agar containing 1/15 M phosphate
(§6) (Trichophyton mentaprophytes: 60 hours, 28° C.).

[2] = test system: Cryptococcus neoformans D49; test: as above; format: cell-based; conditions: 60 h, 1/15 M phosphate buffer, 10^6 cells/ml, 40 hours at 28° C.
Description: as §1, §2, §3, §4, §5, §6

[3] = test system: Cryptococcus neoformans IAM 4514; test: as above; format: cell-based; conditions: IAM4514, 60 h, 1/15 M phosphate buffer, 10^6 cells/ml, 40 hours at 28° C.
Description: as §1, §2, §3, §4, §5, §6

[4] = test system: Candida albicans 83-2-14 (Juntendo); test: as above; format: cell-based; conditions: 60 h, 1/15 M phosphate buffer, 10^6 cells/ml, 40 hours at 28° C.
Description: as §1, §2, §3, §4, §5, §6

[5] = test system: Aspergillus fumigatus IAM 2034; test: as above; format: cell-based; conditions: IAM2034, 60 h, 1/15 M phosphate buffer, 10^6 cells/ml, 40 hours at 28° C.
Description: as §1, §2, §3, §4, §5, §6

[6] = test system: Candida tropicalis IAM 10241; test: as above; format: cell-based; conditions: IAM10241, 60 h, Candida tropicalis IAM 10241 ("IAN 10241" in Table 4b), 1/15 M phosphate buffer, 10^6 cells/ml, 40 hours at 28° C.
Description: as §1, §2, §3, §4, §5, §6

[7] = test system: Candida albicans ATCC 32354 (B311); test: as above; format: cell-based; conditions: ATCC32354, 60 h, 1/15 M phosphate buffer, 10^6 cells/ml, 40 hours at 28° C.
Description: as §1, §2, §3, §4, §5, §6

[8] = test system: Candida albicans A9540; test: as above; format: cell-based; conditions: 60 h, 1/15 M phosphate buffer, 10^6 cells/ml, 40 hours at 28° C.
Description: as §1, §2, §3, §4, §5, §6

[9] = test system: Saccharomyces cerevisiae ATCC 9763; test: as above; format: cell-based; conditions: ATCC9763, 60 h, 1/15 M phosphate buffer, 10^6 cells/ml, 40 hours at 28° C.
Description: as §1, §2, §3, §4, §5, §6

[10] = test system: Trichophyton mentagrophytes #4329; test: as above; format: cell-based; conditions: 1/15 M phosphate buffer, 10^7 cells/ml, 60 hours, 28° C.
Description: as §1, §2, §3, §4, §5, §6

[11] = test system: C. albicans A9540; test: In vitro antifungal activity, serial agar dilution, Sabouraud dextrose agar (Table 4a); format: cell-based; conditions: Candida albicans, 10^6 CFU/ml, 40-60 hours at 28° C.
Description: as §1
(§7) Medium: Sabouraud dextrose agar

[12] = test system: Sporothrix schenckii IF08158; test: as above; format: cell-based; conditions: 10^6 CFU/ml, 40-60 hours at 28° C.
Description: as §1, §7

[13] = test system: Candida albicans IAM4888; test: as above; format: cell-based; conditions: 10^6 CFU/ml, 40-60 hours at 28° C.
Description: as §1, §7

[14] = test system: Mucor spinosus IF05317; test: as above; format: cell-based; conditions: 10^6 CFU/ml, 40-60 hours at 28° C.
Description: as §1, §7

[15] = test system: Aspergillus fumigatus IAM2530; test: as above; format: cell-based; conditions: 10^6 CFU/ml, 40-60 hours at 28° C.
Description: as §1, §7

[16] = test system: Cryptococcus neoformans D49; test: as above; format: cell-based; conditions: 10^6 CFU/ml, 40-60 hours at 28° C.
Description: as §1, §7

[17] = test system: Fusarium moniliforme A2284; test: as above; format: cell-based; conditions: Fusarium verticillioides, 10^6 CFU/ml, 40-60 hours at 28° C.
Description: as §1, §7

[18] = test system: T. mentagrophytes #4329; test: as above; format: cell-based; conditions: Trichophyton mentagrophytes, 10^6 CFU/ml, 40-60 hours at 28° C.
Description: as §1, §7

[19] = test system: A. fumigatus IAM2034; test: as above; format: cell-based; conditions: Aspergillus fumigatus, 10^6 CFU/ml, 40-60 hours at 28° C.
Description: as §1, §7

[20] = test system: Trichophyton mentagrophytes D155; test: as above; format: cell-based; conditions: 10^6 CFU/ml, 40-60 hours at 28° C.
Description: as §1, §7

[21] = test system: C. neoformans IAM4514; test: as above; format: cell-based; conditions: Cryptococcus neoformans, 10^6 CFU/ml, 40-60 hours at 28° C.
Description: as §1, §7

[22] = test system: Blastomyces dermatitidis D40; test: as above; format: cell-based; conditions: 10^6 CFU/ml, 40-60 hours at 28° C.
Description: as §1, §7

[23] = test system: Petriellidium boydii IF08078; test: as above; format: cell-based; conditions: Scedosporium boydii, 10^6 CFU/ml, 40-60 hours at 28° C.
Description: as §1, §7

[24] = test system: Candida albicans ATCC 38247 (polyene-R); test: In vitro antifungal activity, serial agar dilution, yeast morphology agar (Table 4b); format: cell-based; conditions: ATCC38247, 60 h
Description: as §1, §2, §3, §4, §5

[25] = Solubility; format: physicochemical

SMILES | MIC [1] | MIC [2] | MIC [3] | MIC [4] | MIC [5] | MIC [6] | MIC [7] | MIC [8] | MIC [9] | MIC [10] | MIC [11] | MIC [12] | MIC [13] | MIC [14] | MIC [15] | MIC [16] | MIC [17] | MIC [18] | MIC [19] | MIC [20] | further results
COc1cc(O)c2c(c1)C(=O)c1c(cc3c(c1O)-c1c(cc(C)c(C(=O)N[C@H](CO)C(=O)O)c1O)[C@H](O[C@@H]1O[C@H](C)[C@H](N(C)C)[C@H](O[C@@H]4O[C@H](CO)[C@@H](O)[C@H](O)[C@H]4O)[C@H]1O)[C@H]3O)C2=O [N-Methyl Pradimicin FL] | 12.5 µg/mL (≈ 13.9 µM) | 6.3 µg/mL (≈ 6.99 µM) | 6.3 µg/mL (≈ 6.99 µM) | 6.3 µg/mL (≈ 6.99 µM) | 6.3 µg/mL (≈ 6.99 µM) | 12.5 µg/mL (≈ 13.9 µM) | 6.3 µg/mL (≈ 6.99 µM) | 6.3 µg/mL (≈ 6.99 µM) | 3.1 µg/mL (≈ 3.44 µM) | 6.3 µg/mL (≈ 6.99 µM) | – | – | – | – | – | – | – | – | – | – | –
COc1cc(O)c2c(c1)C(=O)c1c(cc3c(c1O)-c1c(cc(C)c(C(=O)N[C@H](C)C(=O)O)c1O)[C@H](O[C@@H]1O[C@H](C)[C@H](N(C)C)[C@H](O[C@@H]4O[C@H](CO)[C@@H](O)[C@H](O)[C@H]4O)[C@H]1O)[C@H]3O)C2=O [N-Methyl Pradimicin L] | – | – | – | – | – | – | – | – | – | – | 12.5 µg/mL (≈ 14.1 µM) | 1.6 µg/mL (≈ 1.81 µM) | 12.5 µg/mL (≈ 14.1 µM) | > 100 µg/mL | 6.3 µg/mL (≈ 7.12 µM) | 6.3 µg/mL (≈ 7.12 µM) | 12.5 µg/mL (≈ 14.1 µM) | 25 µg/mL (≈ 28.3 µM) | 6.3 µg/mL (≈ 7.12 µM) | 25 µg/mL (≈ 28.3 µM) | MIC [21]: 6.3 µg/mL (≈ 7.12 µM); MIC [22]: 6.3 µg/mL (≈ 7.12 µM); MIC [23]: 25 µg/mL (≈ 28.3 µM)
CN[C@@H]1[C@H](O[C@@H]2OC[C@@H](O)[C@H](O)[C@H]2O)[C@@H](O)[C@H](O[C@H]2c3cc(C)c(C(=O)N[C@H](C)C(=O)O)c(O)c3-c3c(cc4c(c3O)C(=O)c3cc(OC)cc(O)c3C4=O)[C@@H]2O)O[C@@H]1C [Pradimicin A, pradimicin A, reference compound] | 12.5 µg/mL (≈ 14.9 µM) | 1.6 µg/mL (≈ 1.9 µM) | 1.6 µg/mL (≈ 1.9 µM) | 12.5 µg/mL (≈ 14.9 µM) | 1.6 µg/mL (≈ 1.9 µM) | > 100 µg/mL | 6.3 µg/mL (≈ 7.49 µM) | 12.5 µg/mL (≈ 14.9 µM) | 6.3 µg/mL (≈ 7.49 µM) | 3.1 µg/mL (≈ 3.69 µM) | 100 µg/mL (≈ 119 µM) | 1.6 µg/mL (≈ 1.9 µM) | 6.3 µg/mL (≈ 7.49 µM) | > 100 µg/mL | 1.6 µg/mL (≈ 1.9 µM) | 1.6 µg/mL (≈ 1.9 µM) | 6.3 µg/mL (≈ 7.49 µM) | 6.3 µg/mL (≈ 7.49 µM) | 3.1 µg/mL (≈ 3.69 µM) | 1.6 µg/mL (≈ 1.9 µM) | MIC [24]: 6.3 µg/mL (≈ 7.49 µM); MIC [21]: 1.6 µg/mL (≈ 1.9 µM); MIC [22]: 6.3 µg/mL (≈ 7.49 µM); MIC [23]: 6.3 µg/mL (≈ 7.49 µM)
CN[C@@H]1[C@H](O[C@@H]2O[C@H](CO)[C@@H](O)[C@H](O)[C@H]2O)[C@@H](O)[C@H](O[C@H]2c3cc(C)c(C(=O)N[C@H](CO)C(=O)O)c(O)c3-c3c(cc4c(c3O)C(=O)c3cc(OC)cc(O)c3C4=O)[C@@H]2O)O[C@@H]1C [Pradimicin FL, pradimicin FL] | 6.3 µg/mL (≈ 7.1 µM) | 3.1 µg/mL (≈ 3.5 µM) | 1.6 µg/mL (≈ 1.8 µM) | 6.3 µg/mL (≈ 7.1 µM) | 3.1 µg/mL (≈ 3.5 µM) | 6.3 µg/mL (≈ 7.1 µM) | 6.3 µg/mL (≈ 7.1 µM) | 6.3 µg/mL (≈ 7.1 µM) | 3.1 µg/mL (≈ 3.5 µM) | 3.1 µg/mL (≈ 3.5 µM) | – | – | – | – | – | – | – | – | – | – | MIC [24]: 3.1 µg/mL (≈ 3.5 µM)
CN[C@@H]1[C@H](O[C@@H]2O[C@H](CO)[C@@H](O)[C@H](O)[C@H]2O)[C@@H](O)[C@H](O[C@H]2c3cc(C)c(C(=O)N[C@H](C)C(=O)O)c(O)c3-c3c(cc4c(c3O)C(=O)c3cc(OC)cc(O)c3C4=O)[C@@H]2O)O[C@@H]1C [Pradimicin L, pradimicin L] | > 100 µg/mL | 1.6 µg/mL (≈ 1.84 µM) | 0.8 µg/mL (≈ 0.919 µM) | 100 µg/mL (≈ 115 µM) | 3.1 µg/mL (≈ 3.56 µM) | 100 µg/mL (≈ 115 µM) | 6.3 µg/mL (≈ 7.23 µM) | 25 µg/mL (≈ 28.7 µM) | 6.3 µg/mL (≈ 7.23 µM) | 3.1 µg/mL (≈ 3.56 µM) | 12.5 µg/mL (≈ 14.4 µM) | 0.8 µg/mL (≈ 0.919 µM) | 6.3 µg/mL (≈ 7.23 µM) | > 100 µg/mL | 3.1 µg/mL (≈ 3.56 µM) | 0.8 µg/mL (≈ 0.919 µM) | 6.3 µg/mL (≈ 7.23 µM) | 12.5 µg/mL (≈ 14.4 µM) | 3.1 µg/mL (≈ 3.56 µM) | 6.3 µg/mL (≈ 7.23 µM) | MIC [24]: 3.1 µg/mL (≈ 3.56 µM); MIC [21]: 0.8 µg/mL (≈ 0.919 µM); MIC [22]: 3.1 µg/mL (≈ 3.56 µM); MIC [23]: 25 µg/mL (≈ 28.7 µM); Solubility ([25]; dimethyl sulfoxide, dimethyl-formamide, acidic or alkaline water): Soluble in dimethyl sulfoxide, dimethyl-formamide, and acidic or alkaline water; Solubility ([25]; ethanol, methanol, and water): slightly soluble in ethanol, methanol, and water
